# Measurements taken from publication PMC4593646, “The Cyclooctadepsipeptide Anthelmintic Emodepside Differentially Modulates Nematode, Insect and Human Calcium-Activated Potassium (SLO) Channel Alpha Subunits” (PLoS Neglected Tropical Diseases, 2015).
# Columns and labels:
# [1] = molecular target: T1, human KCNMA1 (hum KCNMA1) (Homo sapiens, UniProt Q12791); assay: whole cell patch clamp, transfected HEK293 cells; transient facilitation then inhibition at […]; type: cell-based
# T1 construct: KCNMA1 variant 2/isoform b (NP_002238), expressed in HEK293 cells
# Drosophila Slo (Dm Slo) = molecular target: T2, Drosophila Slo (Dm Slo) (Drosophila melanogaster, UniProt Q03720); assay: whole cell voltage clamp, CHO cells stably expressing Dm Slo, dose-response; type: cell-based
# T2 construct: alpha subunit, stably expressed in CHO cells
# T2 sequence (Q03720 whole entry): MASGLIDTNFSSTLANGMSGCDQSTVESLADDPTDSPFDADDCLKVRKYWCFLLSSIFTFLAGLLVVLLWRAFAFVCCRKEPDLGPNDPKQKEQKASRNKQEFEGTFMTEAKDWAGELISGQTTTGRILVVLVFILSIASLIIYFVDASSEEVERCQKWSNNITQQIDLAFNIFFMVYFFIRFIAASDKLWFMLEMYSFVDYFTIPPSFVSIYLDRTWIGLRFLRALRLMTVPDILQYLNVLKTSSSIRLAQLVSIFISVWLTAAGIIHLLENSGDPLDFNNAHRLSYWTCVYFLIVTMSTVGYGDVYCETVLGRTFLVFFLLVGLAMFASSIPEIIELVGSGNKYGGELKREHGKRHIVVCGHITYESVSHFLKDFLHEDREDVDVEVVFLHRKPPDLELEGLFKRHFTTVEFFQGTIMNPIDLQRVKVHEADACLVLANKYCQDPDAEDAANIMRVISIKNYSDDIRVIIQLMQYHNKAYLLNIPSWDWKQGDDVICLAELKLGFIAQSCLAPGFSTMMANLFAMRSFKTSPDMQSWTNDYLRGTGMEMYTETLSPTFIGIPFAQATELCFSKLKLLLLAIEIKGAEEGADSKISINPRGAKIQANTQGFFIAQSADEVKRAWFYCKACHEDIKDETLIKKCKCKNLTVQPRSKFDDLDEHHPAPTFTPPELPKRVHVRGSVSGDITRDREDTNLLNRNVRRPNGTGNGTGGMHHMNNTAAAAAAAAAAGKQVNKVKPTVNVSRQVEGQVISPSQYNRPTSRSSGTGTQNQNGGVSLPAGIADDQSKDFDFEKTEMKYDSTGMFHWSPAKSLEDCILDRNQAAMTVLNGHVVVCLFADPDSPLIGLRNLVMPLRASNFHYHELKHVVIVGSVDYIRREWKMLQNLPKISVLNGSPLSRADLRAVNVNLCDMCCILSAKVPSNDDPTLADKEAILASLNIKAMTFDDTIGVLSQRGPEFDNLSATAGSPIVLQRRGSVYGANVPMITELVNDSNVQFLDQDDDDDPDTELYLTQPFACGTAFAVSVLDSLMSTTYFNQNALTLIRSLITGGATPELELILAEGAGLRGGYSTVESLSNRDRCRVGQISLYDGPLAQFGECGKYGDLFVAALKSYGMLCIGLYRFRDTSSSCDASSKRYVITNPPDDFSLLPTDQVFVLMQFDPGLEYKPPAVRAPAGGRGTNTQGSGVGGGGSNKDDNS
# T1 sequence (Q12791 whole entry, canonical isoform): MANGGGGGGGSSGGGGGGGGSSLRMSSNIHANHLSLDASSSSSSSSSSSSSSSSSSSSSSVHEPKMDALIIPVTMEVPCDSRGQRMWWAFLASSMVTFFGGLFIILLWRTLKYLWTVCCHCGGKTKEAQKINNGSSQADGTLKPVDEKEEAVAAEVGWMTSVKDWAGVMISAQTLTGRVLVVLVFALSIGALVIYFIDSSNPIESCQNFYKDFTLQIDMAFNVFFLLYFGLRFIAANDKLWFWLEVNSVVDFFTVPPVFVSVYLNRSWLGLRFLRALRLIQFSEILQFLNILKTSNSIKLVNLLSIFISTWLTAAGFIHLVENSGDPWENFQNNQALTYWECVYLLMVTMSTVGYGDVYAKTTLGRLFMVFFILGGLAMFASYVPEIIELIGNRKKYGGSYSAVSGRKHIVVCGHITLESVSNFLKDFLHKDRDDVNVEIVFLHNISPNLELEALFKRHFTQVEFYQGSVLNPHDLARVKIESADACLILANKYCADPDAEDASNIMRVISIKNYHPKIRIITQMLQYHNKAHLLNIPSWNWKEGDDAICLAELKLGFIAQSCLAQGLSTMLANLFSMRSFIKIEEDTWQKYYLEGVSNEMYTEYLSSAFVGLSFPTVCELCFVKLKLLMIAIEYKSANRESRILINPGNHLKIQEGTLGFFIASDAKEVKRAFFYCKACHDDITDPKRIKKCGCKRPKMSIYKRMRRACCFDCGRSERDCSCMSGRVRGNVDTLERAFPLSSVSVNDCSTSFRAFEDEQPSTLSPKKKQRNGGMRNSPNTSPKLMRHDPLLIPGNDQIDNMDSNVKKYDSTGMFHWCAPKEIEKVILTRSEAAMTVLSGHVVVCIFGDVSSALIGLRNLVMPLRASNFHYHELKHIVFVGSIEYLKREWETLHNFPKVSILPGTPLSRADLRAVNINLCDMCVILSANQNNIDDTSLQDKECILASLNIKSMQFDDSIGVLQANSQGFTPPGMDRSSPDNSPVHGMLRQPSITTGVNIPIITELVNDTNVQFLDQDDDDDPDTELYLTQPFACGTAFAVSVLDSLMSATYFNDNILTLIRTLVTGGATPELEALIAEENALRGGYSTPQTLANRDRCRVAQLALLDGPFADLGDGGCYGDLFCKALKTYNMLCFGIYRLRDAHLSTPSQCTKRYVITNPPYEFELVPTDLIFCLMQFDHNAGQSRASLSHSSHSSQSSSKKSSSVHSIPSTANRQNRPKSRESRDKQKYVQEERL
Compound,"whole cell patch clamp, transfected HEK293 cells; transient facilitation then in [1]",IC50 (Drosophila Slo (Dm Slo)) [nM]
CC(C)C[C@H]1C(=O)O[C@H](Cc2ccc(N3CCOCC3)cc2)C(=O)N(C)[C@@H](CC(C)C)C(=O)O[C@H](C)C(=O)N(C)[C@@H](CC(C)C)C(=O)O[C@H](Cc2ccc(N3CCOCC3)cc2)C(=O)N(C)[C@@H](CC(C)C)C(=O)O[C@H](C)C(=O)N1C [emodepside],"In HEK293 cells expressing KCNMA1 emodepside elicited a biphasic, concentration-dependent effect on current amplitude",–
C=C(C)[C@H]1O[C@H]2CC[C@@]3(C)[C@@](O)(CC[C@H]4[C@@H]5OC(C)(C)[C@H]6C[C@@H]7C(=C)Cc8c(Cl)cc9[nH]c(c5c9c8[C@@]76O)[C@@]43C)[C@@]23O[C@H]3[C@H]1O [penitrem A],–,0.5
COc1ccc2c3c4n(c2c1)[C@H](C=C(C)C)OOC(C)(C)C[C@@H]4N1C(=O)[C@@H]2CCCN2C(=O)[C@]1(O)[C@H]3O [verruculogen],–,6.2
